# According to PMC11623308 (2023):
# Tested on: 5'-biotin NRAS-G4 (RNA, G4) UGUGGGAGGGGCGGGUCUGGG
# Assay: SPR
# Details: K+ 100 mM; 10 mM Tris pH 6.9, 0.005% Tween 20, 5% DMSO; Langmuir 1:1 fit
smiles,measurement,value
CN(C)c1ccc(Nc2c3ccc(NC(=O)CCN4CCCC4)cc3nc3cc(NC(=O)CCN4CCCC4)ccc23)cc1,KD,79 ± 1.2 nM
